Drawing on PubChem BioAssay AID254 (DTP/NCI, 2004), this text covers T/C for five compounds.

Each structure is given as a SMILES string. Several values for one entry are separate records, joined by “and”; a condition that tells them apart may be missing. Identical values can stand only once. Toxic doses and inconclusive results are not listed.

The subject of the experiment is L1210 leukemia iv in BDF1 mice, survival T/C. As to the kind of experiment: NCI In Vivo Anticancer Drug Screen. Data for tumor model L1210 Leukemia (intravenous) in B6D2F1 (BDF1) mice. Conditions: higher = longer survival. The method, then:
The antitumor activity of compounds was measured in mice bearing transplantable tumors. Survival or tumor size were measured and the results are expressed as the measurement made in the treated group (T) divided by the measurement made in the vehicle treated control group (C). The tumor model used in this assay is L1210 Leukemia (intravenous) in B6D2F1 (BDF1) mice

Turning to `O=NN(CCCl)C(=O)NC1CCCCC1`, the T/C reads like this: (endpoint: mean survival time, dose: 5.1 mg/kg/injection, schedule: Q01DX001 (ip), vehicle: carboxymethylcellulose (CMC)) 102 % of control; (endpoint: mean survival time, dose: 10.0 mg/kg/injection, schedule: Q04DX004 (ip), vehicle: carboxymethylcellulose (CMC)) 124 % of control; (endpoint: mean survival time, dose: 15.0 mg/kg/injection, schedule: Q01DX001 (ip), vehicle: Klucel (hydroxypropylcellulose) (HPC)) 170 % of control; (endpoint: mean survival time, dose: 16.0 mg/kg/injection, schedule: Q04DX004 (ip), vehicle: carboxymethylcellulose (CMC)) 160 % of control; (endpoint: mean survival time, dose: 16.6 mg/kg/injection, schedule: Q01DX001 (ip), vehicle: carboxymethylcellulose (CMC)) 163 % of control and 174 % of control; (endpoint: mean survival time, dose: 17.0 mg/kg/injection, schedule: Q01DX001 (ip), vehicle: carboxymethylcellulose (CMC)) 176 % of control. In addition, the T/C (endpoint: mean survival time, dose: 18.0 mg/kg/injection, schedule: Q01DX001 (ip), vehicle: Klucel (hydroxypropylcellulose) (HPC)) was 177 % of control; the T/C (endpoint: mean survival time, dose: 21.0 mg/kg/injection, schedule: Q01DX001 (ip), vehicle: carboxymethylcellulose (CMC)) is 218 % of control and 241 % of control; the T/C (endpoint: mean survival time, dose: 22.0 mg/kg/injection, schedule: Q01DX001 (ip), vehicle: Klucel (hydroxypropylcellulose) (HPC)) was 227 % of control; the T/C (endpoint: mean survival time, dose: 22.0 mg/kg/injection, schedule: Q01DX001 (ip), vehicle: carboxymethylcellulose (CMC)) was 192 % of control and 225 % of control; the T/C (endpoint: mean survival time, dose: 22.0 mg/kg/injection, schedule: Q04DX004 (ip), vehicle: carboxymethylcellulose (CMC)) was 360 % of control; the T/C (endpoint: mean survival time, dose: 27.0 mg/kg/injection, schedule: Q01DX001 (ip), vehicle: Klucel (hydroxypropylcellulose) (HPC)) is 161 % of control. Further, the T/C was 346 % of control (endpoint: mean survival time, dose: 30.0 mg/kg/injection, schedule: Q01DX001 (ip), vehicle: carboxymethylcellulose (CMC)); 709 % of control (endpoint: mean survival time, dose: 33.0 mg/kg/injection, schedule: Q04DX004 (ip), vehicle: carboxymethylcellulose (CMC)); 574 % of control (endpoint: mean survival time, dose: 33.5 mg/kg/injection, schedule: Q01DX001 (ip), vehicle: Klucel (hydroxypropylcellulose) (HPC)); 534 % of control and 560 % of control and 606 % of control (endpoint: mean survival time, dose: 37.5 mg/kg/injection, schedule: Q01DX001 (ip), vehicle: carboxymethylcellulose (CMC)); 222 % of control (endpoint: mean survival time, dose: 40.0 mg/kg/injection, schedule: Q01DX001 (ip), vehicle: Klucel (hydroxypropylcellulose) (HPC)); 368 % of control (endpoint: mean survival time, dose: 40.0 mg/kg/injection, schedule: Q01DX001 (ip), vehicle: carboxymethylcellulose (CMC)). Moreover, the T/C reads like this: (endpoint: mean survival time, dose: 42.0 mg/kg/injection, schedule: Q01DX001 (ip), vehicle: Klucel (hydroxypropylcellulose) (HPC)) 438 % of control; (endpoint: mean survival time, dose: 43.0 mg/kg/injection, schedule: Q01DX001 (ip), vehicle: carboxymethylcellulose (CMC)) 633 % of control and 707 % of control; (endpoint: mean survival time, dose: 50.0 mg/kg/injection, schedule: Q01DX001 (ip), vehicle: Klucel (hydroxypropylcellulose) (HPC)) 407 % of control; (endpoint: mean survival time, dose: 56.0 mg/kg/injection, schedule: Q01DX001 (ip), vehicle: Klucel (hydroxypropylcellulose) (HPC)) 464 % of control; (endpoint: mean survival time, dose: 60.0 mg/kg/injection, schedule: Q01DX001 (ip), vehicle: Klucel (hydroxypropylcellulose) (HPC)) 336 % of control; (endpoint: mean survival time, dose: 62.5 mg/kg/injection, schedule: Q01DX001 (ip), vehicle: carboxymethylcellulose (CMC)) 652 % of control and 662 % of control and 775 % of control. Further, the T/C reads like this: (endpoint: mean survival time, dose: 70.0 mg/kg/injection, schedule: Q01DX001 (ip), vehicle: Klucel (hydroxypropylcellulose) (HPC)) 519 % of control; (endpoint: mean survival time, dose: 75.0 mg/kg/injection, schedule: Q01DX001 (ip), vehicle: carboxymethylcellulose (CMC)) 826 % of control; (endpoint: mean survival time, dose: 86.0 mg/kg/injection, schedule: Q01DX001 (ip), vehicle: carboxymethylcellulose (CMC)) 242 % of control and 297 % of control; (endpoint: mean survival time, dose: 90.0 mg/kg/injection, schedule: Q01DX001 (ip), vehicle: Klucel (hydroxypropylcellulose) (HPC)) 522 % of control.
On to `COc1cc([C@@H]2c3cc4c(cc3[C@@H](OC3OC5COC(C)OC5C(O)C3O)[C@H]3COC(=O)[C@H]23)OCO4)cc(OC)c1O` (stereo not given in full), for which the T/C (endpoint: mean survival time, dose: 12.0 mg/kg/injection, schedule: Q04DX003 (ip), vehicle: saline) was 117 % of control; the T/C (endpoint: mean survival time, dose: 40.0 mg/kg/injection, schedule: Q04DX003 (ip), vehicle: saline) is 297 % of control; the T/C (endpoint: mean survival time, dose: 60.0 mg/kg/injection, schedule: Q04DX003 (ip), vehicle: saline) was 447 % of control.
For the compound `CCCCc1ccc2nc(NC(=O)OC)[nH]c2c1`, the T/C runs as follows: (endpoint: median survival time, dose: 30.0 mg/kg/injection, schedule: Q04DX003 (iv), vehicle: saline) 100 % of control; (endpoint: median survival time, dose: 40.0 mg/kg/injection, schedule: Q04DX003 (iv), vehicle: saline) 110 % of control; (endpoint: median survival time, dose: 50.0 mg/kg/injection, schedule: Q04DX003 (iv), vehicle: saline) 113 % of control.
On to `O=NN(CCCl)C(=O)N[C@H]1CCCC[C@@H]1Cl`, for which the T/C is, setting by setting: (endpoint: mean survival time, dose: 5.0 mg/kg/injection, schedule: Q01DX001 (ip), vehicle: other) 108 % of control and 121 % of control; (endpoint: mean survival time, dose: 15.0 mg/kg/injection, schedule: Q01DX001 (ip), vehicle: other) 153 % of control and 160 % of control; (endpoint: mean survival time, dose: 20.0 mg/kg/injection, schedule: Q04DX004 (ip), vehicle: other) 319 % of control; (endpoint: mean survival time, dose: 30.0 mg/kg/injection, schedule: Q01DX001 (ip), vehicle: other) 514 % of control; (endpoint: mean survival time, dose: 30.0 mg/kg/injection, schedule: Q04DX004 (ip), vehicle: other) 95 % of control; (endpoint: mean survival time, dose: 41.0 mg/kg/injection, schedule: Q01DX001 (ip), vehicle: other) 558 % of control and 564 % of control. The T/C is 819 % of control (endpoint: mean survival time, dose: 45.0 mg/kg/injection, schedule: Q01DX001 (ip), vehicle: other); 512 % of control (endpoint: mean survival time, dose: 45.0 mg/kg/injection, schedule: Q04DX004 (ip), vehicle: other); 583 % of control and 650 % of control and 652 % of control (endpoint: mean survival time, dose: 75.0 mg/kg/injection, schedule: Q01DX001 (ip), vehicle: other); 376 % of control and 553 % of control (endpoint: mean survival time, dose: 83.0 mg/kg/injection, schedule: Q01DX001 (ip), vehicle: other); 460 % of control (endpoint: mean survival time, dose: 90.0 mg/kg/injection, schedule: Q01DX001 (ip), vehicle: other).
Turning to `COc1cccc2c1C(=O)c1c(O)c3c(c(O)c1C2=O)C[C@@](O)(C(=O)CO)C[C@@H]3OC1CC(N)C(O)C(C)O1` (stereo not given in full), the T/C by setting is: (endpoint: mean survival time, dose: 0.6 mg/kg/injection, schedule: Q01DX005 (iv), vehicle: clinical formulation) 100 % of control; (endpoint: mean survival time, dose: 0.7 mg/kg/injection, schedule: Q01DX009 (ip), vehicle: clinical formulation) 97 % of control; (endpoint: mean survival time, dose: 0.7 mg/kg/injection, schedule: Q01DX009 (sc), vehicle: clinical formulation) 100 % of control; (endpoint: mean survival time, dose: 0.75 mg/kg/injection, schedule: Q01DX005 (iv), vehicle: saline) 90 % of control; (endpoint: mean survival time, dose: 0.9 mg/kg/injection, schedule: Q01DX005 (iv), vehicle: clinical formulation) 102 % of control; (endpoint: mean survival time, dose: 1.1 mg/kg/injection, schedule: Q01DX009 (ip), vehicle: clinical formulation) 100 % of control. For the same compound, the T/C runs as follows: (endpoint: mean survival time, dose: 1.1 mg/kg/injection, schedule: Q01DX009 (sc), vehicle: clinical formulation) 100 % of control; (endpoint: mean survival time, dose: 1.4 mg/kg/injection, schedule: Q01DX005 (iv), vehicle: clinical formulation) 101 % of control; (endpoint: mean survival time, dose: 1.5 mg/kg/injection, schedule: Q01DX005 (iv), vehicle: saline) 101 % of control; (endpoint: mean survival time, dose: 1.7 mg/kg/injection, schedule: Q01DX009 (ip), vehicle: clinical formulation) 102 % of control; (endpoint: mean survival time, dose: 1.7 mg/kg/injection, schedule: Q01DX009 (sc), vehicle: clinical formulation) 105 % of control; (endpoint: mean survival time, dose: 2.4 mg/kg/injection, schedule: Q01DX005 (iv), vehicle: clinical formulation) 108 % of control. The T/C (endpoint: mean survival time, dose: 2.4 mg/kg/injection, schedule: Q01DX009 (ip), vehicle: clinical formulation) is 105 % of control; the T/C (endpoint: mean survival time, dose: 2.4 mg/kg/injection, schedule: Q01DX009 (sc), vehicle: clinical formulation) was 112 % of control; the T/C (endpoint: mean survival time, dose: 2.5 mg/kg/injection, schedule: Q01DX005 (iv), vehicle: saline) was 196 % of control; the T/C (endpoint: mean survival time, dose: 2.8 mg/kg/injection, schedule: Q01DX005 (iv), vehicle: clinical formulation) was 108 % of control and 117 % of control; the T/C (endpoint: mean survival time, dose: 3.0 mg/kg/injection, schedule: Q01DX005 (iv), vehicle: saline) was 114 % of control; the T/C (endpoint: mean survival time, dose: 3.6 mg/kg/injection, schedule: Q01DX009 (ip), vehicle: clinical formulation) was 110 % of control. The T/C reads like this: (endpoint: mean survival time, dose: 3.6 mg/kg/injection, schedule: Q01DX009 (sc), vehicle: clinical formulation) 119 % of control; (endpoint: mean survival time, dose: 4.0 mg/kg/injection, schedule: Q01DX005 (iv), vehicle: saline) 86 % of control; (endpoint: mean survival time, dose: 4.2 mg/kg/injection, schedule: Q01DX005 (iv), vehicle: clinical formulation) 123 % of control; (endpoint: mean survival time, dose: 6.3 mg/kg/injection, schedule: Q01DX005 (iv), vehicle: clinical formulation) 124 % of control; (endpoint: mean survival time, dose: 7.0 mg/kg/injection, schedule: Q01DX005 (iv), vehicle: saline) 87 % of control; (endpoint: mean survival time, dose: 9.4 mg/kg/injection, schedule: Q01DX005 (iv), vehicle: clinical formulation) 115 % of control. In addition, the T/C (endpoint: mean survival time, dose: 14.1 mg/kg/injection, schedule: Q01DX005 (iv), vehicle: clinical formulation) was 113 % of control.
